# Settings: human gut metagenome, 24 h, 2 µM
# Further: call rule not given here.
row,Bacterial Biotransformation,Structure (SMILES)
1,Compound metabolized,CC(=O)OCC(CCn1cnc2cnc(N)nc21)COC(C)=O [FAMCICLOVIR]
2,Compound metabolized,CC(C)(C)NC(=O)[C@H]1CC[C@H]2[C@@H]3CC[C@H]4NC(=O)C=C[C@]4(C)[C@H]3CC[C@]12C [FINASTERIDE]

# Assay: (§1) The drug is tested on Z-020 corresponding to rabbit gut metagenome with ENA study accession number: PRJEB37062 and ENA sample accession number: ERS12561819 for biotransformation under anaerobic condition. The drug concentrations were measured over 9 timepoints collected between 0 and 24 hours of incubation by liquid-chromatography-coupled mass spectrometry (LC–MS)
# Settings: 2 µM
row,Bacterial Biotransformation,Structure (SMILES)
1,Compound metabolized,CC(=O)OCC(CCn1cnc2cnc(N)nc21)COC(C)=O [FAMCICLOVIR]
2,Compound metabolized,CC(C)(C)NC(=O)[C@H]1CC[C@H]2[C@@H]3CC[C@H]4NC(=O)C=C[C@]4(C)[C@H]3CC[C@]12C [FINASTERIDE]

# Assay: as §1, with “Z-026” for “Z-020”, “to” for “to rabbit gut”, “ERS12561825” for “ERS12561819”
# Settings: 2 µM
row,Bacterial Biotransformation,Structure (SMILES)
1,Compound metabolized,CC(=O)OCC(CCn1cnc2cnc(N)nc21)COC(C)=O [FAMCICLOVIR]
2,Compound metabolized,CC(C)(C)NC(=O)[C@H]1CC[C@H]2[C@@H]3CC[C@H]4NC(=O)C=C[C@]4(C)[C@H]3CC[C@]12C [FINASTERIDE]

# Settings: human gut metagenome, 24 h, 2 µM
# Remark: another data set of the same source
row,Bacterial Biotransformation,Structure (SMILES)
1,Compound metabolized,CC(=O)OCC(CCn1cnc2cnc(N)nc21)COC(C)=O [FAMCICLOVIR]
2,Compound metabolized,CC(C)(C)NC(=O)[C@H]1CC[C@H]2[C@@H]3CC[C@H]4NC(=O)C=C[C@]4(C)[C@H]3CC[C@]12C [FINASTERIDE]

# Settings: human gut metagenome, 24 h, 2 µM
# Remark: another data set of the same source
row,Bacterial Biotransformation,Structure (SMILES)
1,Compound metabolized,CC(=O)OCC(CCn1cnc2cnc(N)nc21)COC(C)=O [FAMCICLOVIR]
2,Compound metabolized,CC(C)(C)NC(=O)[C@H]1CC[C@H]2[C@@H]3CC[C@H]4NC(=O)C=C[C@]4(C)[C@H]3CC[C@]12C [FINASTERIDE]

# Assay: as §1, with “WLS-077” for “Z-020”, “human” for “rabbit”, “ERS12561750” for “ERS12561819”
# Settings: 2 µM
row,Bacterial Biotransformation,Structure (SMILES)
1,Compound metabolized,CC(=O)OCC(CCn1cnc2cnc(N)nc21)COC(C)=O [FAMCICLOVIR]
2,Compound metabolized,CC(C)(C)NC(=O)[C@H]1CC[C@H]2[C@@H]3CC[C@H]4NC(=O)C=C[C@]4(C)[C@H]3CC[C@]12C [FINASTERIDE]

# Settings: human gut metagenome, 24 h, 2 µM
# Remark: another data set of the same source
row,Bacterial Biotransformation,Structure (SMILES)
1,Compound metabolized,CC(=O)OCC(CCn1cnc2cnc(N)nc21)COC(C)=O [FAMCICLOVIR]
2,Compound metabolized,CC(C)(C)NC(=O)[C@H]1CC[C@H]2[C@@H]3CC[C@H]4NC(=O)C=C[C@]4(C)[C@H]3CC[C@]12C [FINASTERIDE]

# Assay: as §1, with “Z-008” for “Z-020”, “to” for “to rabbit gut”, “ERS12561808” for “ERS12561819”
# Settings: 2 µM
row,Bacterial Biotransformation,Structure (SMILES)
1,Compound metabolized,CC(=O)OCC(CCn1cnc2cnc(N)nc21)COC(C)=O [FAMCICLOVIR]
2,Compound NOT metabolized,CC(C)(C)NC(=O)[C@H]1CC[C@H]2[C@@H]3CC[C@H]4NC(=O)C=C[C@]4(C)[C@H]3CC[C@]12C [FINASTERIDE]

# Assay: as §1, with “WLS-220” for “Z-020”, “human” for “rabbit”, “ERS12561769” for “ERS12561819”
# Settings: 2 µM
row,Bacterial Biotransformation,Structure (SMILES)
1,Compound metabolized,CC(=O)OCC(CCn1cnc2cnc(N)nc21)COC(C)=O [FAMCICLOVIR]
2,Compound metabolized,CC(C)(C)NC(=O)[C@H]1CC[C@H]2[C@@H]3CC[C@H]4NC(=O)C=C[C@]4(C)[C@H]3CC[C@]12C [FINASTERIDE]

# Settings: human gut metagenome, 24 h, 2 µM
# Remark: another data set of the same source
row,Bacterial Biotransformation,Structure (SMILES)
1,Compound metabolized,CC(=O)OCC(CCn1cnc2cnc(N)nc21)COC(C)=O [FAMCICLOVIR]
2,Compound metabolized,CC(C)(C)NC(=O)[C@H]1CC[C@H]2[C@@H]3CC[C@H]4NC(=O)C=C[C@]4(C)[C@H]3CC[C@]12C [FINASTERIDE]

# Settings: human gut metagenome, 24 h, 2 µM
# Remark: another data set of the same source
row,Bacterial Biotransformation,Structure (SMILES)
1,Compound metabolized,CC(=O)OCC(CCn1cnc2cnc(N)nc21)COC(C)=O [FAMCICLOVIR]
2,Compound metabolized,CC(C)(C)NC(=O)[C@H]1CC[C@H]2[C@@H]3CC[C@H]4NC(=O)C=C[C@]4(C)[C@H]3CC[C@]12C [FINASTERIDE]

# Assay: as §1, with “Z-003” for “Z-020”, “pig” for “rabbit”, “ERS12561803” for “ERS12561819”
# Settings: 2 µM
row,Bacterial Biotransformation,Structure (SMILES)
1,Compound metabolized,CC(=O)OCC(CCn1cnc2cnc(N)nc21)COC(C)=O [FAMCICLOVIR]
2,Compound metabolized,CC(C)(C)NC(=O)[C@H]1CC[C@H]2[C@@H]3CC[C@H]4NC(=O)C=C[C@]4(C)[C@H]3CC[C@]12C [FINASTERIDE]

# Settings: human gut metagenome, 24 h, 2 µM
# Remark: another data set of the same source
row,Bacterial Biotransformation,Structure (SMILES)
1,Compound metabolized,CC(=O)OCC(CCn1cnc2cnc(N)nc21)COC(C)=O [FAMCICLOVIR]
2,Compound metabolized,CC(C)(C)NC(=O)[C@H]1CC[C@H]2[C@@H]3CC[C@H]4NC(=O)C=C[C@]4(C)[C@H]3CC[C@]12C [FINASTERIDE]

# Settings: human gut metagenome, 24 h, 2 µM
# Remark: another data set of the same source
row,Bacterial Biotransformation,Structure (SMILES)
1,Compound metabolized,CC(=O)OCC(CCn1cnc2cnc(N)nc21)COC(C)=O [FAMCICLOVIR]
2,Compound metabolized,CC(C)(C)NC(=O)[C@H]1CC[C@H]2[C@@H]3CC[C@H]4NC(=O)C=C[C@]4(C)[C@H]3CC[C@]12C [FINASTERIDE]

# Settings: human gut metagenome, 24 h, 2 µM
# Remark: another data set of the same source
row,Bacterial Biotransformation,Structure (SMILES)
1,Compound metabolized,CC(=O)OCC(CCn1cnc2cnc(N)nc21)COC(C)=O [FAMCICLOVIR]
2,Compound NOT metabolized,CC(C)(C)NC(=O)[C@H]1CC[C@H]2[C@@H]3CC[C@H]4NC(=O)C=C[C@]4(C)[C@H]3CC[C@]12C [FINASTERIDE]

# Assay: as §1, with “WLS-007” for “Z-020”, “human” for “rabbit”, “ERS12561742” for “ERS12561819”
# Settings: 2 µM
row,Bacterial Biotransformation,Structure (SMILES)
1,Compound metabolized,CC(=O)OCC(CCn1cnc2cnc(N)nc21)COC(C)=O [FAMCICLOVIR]
2,Compound NOT metabolized,CC(C)(C)NC(=O)[C@H]1CC[C@H]2[C@@H]3CC[C@H]4NC(=O)C=C[C@]4(C)[C@H]3CC[C@]12C [FINASTERIDE]

# Settings: human gut metagenome, 24 h, 2 µM
# Remark: another data set of the same source
row,Bacterial Biotransformation,Structure (SMILES)
1,Compound metabolized,CC(=O)OCC(CCn1cnc2cnc(N)nc21)COC(C)=O [FAMCICLOVIR]
2,Compound metabolized,CC(C)(C)NC(=O)[C@H]1CC[C@H]2[C@@H]3CC[C@H]4NC(=O)C=C[C@]4(C)[C@H]3CC[C@]12C [FINASTERIDE]

# Assay: as §1, with “WLS-310” for “Z-020”, “human” for “rabbit”, “ERS12561785” for “ERS12561819”
# Settings: 2 µM
row,Bacterial Biotransformation,Structure (SMILES)
1,Compound metabolized,CC(=O)OCC(CCn1cnc2cnc(N)nc21)COC(C)=O [FAMCICLOVIR]
2,Compound metabolized,CC(C)(C)NC(=O)[C@H]1CC[C@H]2[C@@H]3CC[C@H]4NC(=O)C=C[C@]4(C)[C@H]3CC[C@]12C [FINASTERIDE]

# Settings: human gut metagenome, 24 h, 2 µM
# Remark: another data set of the same source
row,Bacterial Biotransformation,Structure (SMILES)
1,Compound metabolized,CC(=O)OCC(CCn1cnc2cnc(N)nc21)COC(C)=O [FAMCICLOVIR]
2,Compound metabolized,CC(C)(C)NC(=O)[C@H]1CC[C@H]2[C@@H]3CC[C@H]4NC(=O)C=C[C@]4(C)[C@H]3CC[C@]12C [FINASTERIDE]

# Assay: as §1, with “Z-030” for “Z-020”, “mouse” for “rabbit”, “ERS12561829” for “ERS12561819”
# Settings: 2 µM
row,Bacterial Biotransformation,Structure (SMILES)
1,Compound NOT metabolized,CC(=O)OCC(CCn1cnc2cnc(N)nc21)COC(C)=O [FAMCICLOVIR]
2,Compound NOT metabolized,CC(C)(C)NC(=O)[C@H]1CC[C@H]2[C@@H]3CC[C@H]4NC(=O)C=C[C@]4(C)[C@H]3CC[C@]12C [FINASTERIDE]
